Results: patent US20260144784A1, “COMPOSITION FOR PREVENTING OR TREATING MELAS SYNDROME, CONTAINING ISOPQUINOLINE DERIVATIVE AS ACTIVE INGREDIENT” (ALTMEDICAL CO., LTD., priority 2022, published 2026)

Tests used:
BEAS-2B cell line [1] = experiment: mitophagy activity, mt-Keima fluorescent protein in BEAS-2B cells (FACS, confocal microscope, mito-YFP); format: cell-based, human; conditions: BEAS-2B mt-Keima
Description: To analyze the mitophagy-promoting activity effect of the CD1-012 synthesized in the Example 1, the BEAS-2B cell line, which is a human normal lung cell line, was induced to express the mt-Keima fluorescent protein. Following this, the CD1-012 (15 μM) and the compound of Comparative Example 1, CCCP (10 μM), were treated for 24 hours. After the treatment, the mitophagy activity of each sample was measured, and the results were represented in FIGS. 1A to 1C.
Specifically, FIG. 1A represents the analysis results using flow cytometry (FACS) (treatment of CD1-012 at 15 μM for 24 hours), FIG. 1B represents the analysis results using a confocal microscope (treatment of CD1-012 at 15 μM for 18 hours), and FIG. 1C represents the measurement results of the quantitative changes in the mitochondria using a fluorescent protein, mito-YFP, which includes a targeting sequence to transport protein to the mitochondria (treatment of CD1-012 at 20 μM for 24 hours).
It was confirmed whether CD1-012 synthesized in Example 1 promotes mitophagy activity in a concentration- and time-dependent manner. To this end, the CD1-012 was treated at various concentrations or at a fixed concentration (15 μM) for different treatment durations in the BEAS-2B cell line expressing mt-Keima, and mitophagy activity was measured using a flow cytometer.
(§1) It was confirmed whether CD1-012 synthesized in Example 1 specifically increases only mitophagy activity. To this end, the BEAS-2B cell line expressing mt-Keima was treated with CD1-012 (15 μM) or Comparative Example 1 (CCCP, 10 μM) for 18 hours, and mitophagy activity was analyzed using a confocal microscope. Additionally, to measure autophagy activity, the BEAS-2B cell line expressing Keima fluorescent protein was incubated in Hanks' balanced salt solution (HBSS) for 3 hours to induce a starvation condition (starv.), and the results were compared with samples treated with CD1-012 (15 μM) for 18 hours using a confocal microscope.
To this end, the human normal lung cell line BEAS-2B, expressing mt-Keima fluorescent protein, was treated with CD1-012, Comparative Example 2 (palmatine), or Comparative Example 3 (berberine) at various concentrations, and the mitophagy-inducing activity of each sample was compared.

[2] = test system: mitochondrial reactive oxygen species (ROS); experiment: mitochondrial reactive oxygen species, MitoSOX assay; format: cell-based; conditions: CD1-012 10 μM or 15 μM, CCCP 10 μM, 24 hours
Description: (§2) It was confirmed whether the isoquinoline derivative according to the present invention induces mitochondrial dysfunction, similar to CCCP. To this end, the CD1-012 (10 μM or 15 μM) and CCCP (10 μM) were treated for 24 hours, and the mitochondrial membrane potential and mitochondrial reactive oxygen species (ROS) levels in each sample were analyzed. Mitochondrial membrane potential was analyzed using the TMRM (tetramethylrhodamine methyl ester) assay, and mitochondrial ROS levels were analyzed using the MitoSOX assay.

[3] = test system: mitochondrial membrane potential; experiment: mitochondrial membrane potential, TMRM assay; format: cell-based; conditions: CD1-012 10 μM or 15 μM, CCCP 10 μM, 24 hours
Description: as §2

[4] = test system: PINK1 knockdown cell line (shPINK1); experiment: mitophagy activity by FACS in PINK1 knockdown BEAS-2B cell line; format: cell-based, human; conditions: CCCP 10 μM, CD1-012 15 μM, 18 hours
Description: In this example, it was confirmed whether the mitophagy activation function of the isoquinoline derivative according to the present invention is dependent on the PINK1-Parkin pathway. To this end, after a BEAS-2B cell line, in which PINK1 was knocked down using short hairpin RNA (shRNA), was treated with CCCP (10 μM) of Comparative Example 1 or CD1-012 (15 μM) for 18 hours, the mitophagy activity of each sample was analyzed using flow cytometry (FACS).

BEAS-2B cell line [5] = experiment: autophagy activity, Keima fluorescent protein in BEAS-2B cells (confocal microscope); format: cell-based, human; conditions: BEAS-2B Keima; 15 μM 18 hours, FIG. 4B
Description: as §1

SH-SYSY cell line = experiment: mitophagy activity by flow cytometry in SH-SY5Y cells expressing mt-Keima; format: cell-based, human; conditions: FACS
Description: (§3) It was confirmed whether CD1-012 synthesized in Example 1 increases mitophagy activity in various cell lines. To this end, CD1-012 and Comparative Example 1 (CCCP) were treated in the SH-SYSY cell line, a human neuroblastoma cell line expressing mt-Keima fluorescent protein, and in the HeLa-Parkin cell line, a HeLa cervical cancer cell line expressing Parkin (E3 ligase). Following this treatment, the mitophagy activity of each sample was analyzed using flow cytometry (FACS), and the results are shown in FIGS. 2A to 2B.

[6] = test system: MELAS syndrome patient-derived cells; experiment: mitochondrial protein levels (SDHA, SDHB) by Western blot in MELAS syndrome patient-derived cells; format: cell-based, human; conditions: 24 hours
Description: As confirmed in the previous example, mitochondrial dysfunction is observed in MELAS syndrome patient-derived cells, and in the present example, it was confirmed whether the compound according to the present invention can promote mitophagy activity in MELAS syndrome patient-derived cells. CD1-012 was treated in MELAS syndrome patient-derived cells at concentrations of 20 μM or 40 μM for 24 hours, and the levels of mitochondrial proteins SDHA and SDHB were analyzed by Western blot.

HeLa-Parkin cell line = experiment: mitophagy activity by flow cytometry in HeLa-Parkin cells; format: cell-based; conditions: FACS
Description: as §3

[7] = test system: MELAS syndrome patient-derived cells; experiment: ATP levels in MELAS syndrome patient-derived cells; format: cell-based, human; conditions: 40 μM for 24 hours, measured 2 days later, untreated 76%
Description: In this example, it was confirmed whether the compound according to the present invention can improve mitochondrial dysfunction in MELAS syndrome patient-derived cells. CD1-012 was treated in MELAS syndrome patient-derived cells at a concentration of 40 μM for 24 hours, and ATP levels were measured 2 days later. As a result, it was confirmed that the ATP levels in MELAS syndrome patient-derived cells, which had decreased to 76% of those in normal cells, were restored to 95% of normal levels by CD1-012 treatment (FIG. 13).

143B MELAS cell line [8] = experiment: mitochondrial protein levels by Western blot in MELAS cell line; format: cell-based; conditions: FIG. 9C
Description: (§4) In the previous example, it was confirmed that mitochondrial dysfunction occurs in the MELAS syndrome cell line, and in the present example, it was confirmed whether the compound according to the present invention can promote mitophagy in the MELAS syndrome cell line. In order to verify the mitophagy activity-promoting effect of the CD1-012 compound in the 143B MELAS cell line, a mitophagy quantification method using the mt-Keima fluorescent protein, which enables quantitative measurement of mitophagy activity in live cells, was used (2015 Mol Cell, 60 (4): 685-696.doi: 10.1016/j.molcel.2015.10.009:2018 J Vis Exp. (138): 58099 doi: 10.3791/58099.). Specifically, mt-Keima fluorescent protein was expressed in the 143B MELAS cell line, and after treatment with CD1-012 at various concentrations, mitophagy activity was measured using a mitophagy activity measurement method using a fluorescence-activated cell sorter (FACS) or a confocal microscope. […] Additionally, as a result of investigating the reduction of mitochondrial proteins associated with increased mitophagy activity by Western blot, it was confirmed that the levels of SDHA and COX4 proteins decreased when treated with CD1-012 at concentrations of 10 μM or higher (FIG. 9C).

143B MELAS cell line [9] = experiment: mitophagy activity, mt-Keima in 143B MELAS cell line (FACS, confocal microscope); format: cell-based; conditions: 143B MELAS mt-Keima
Description: as §4

143B MELAS cell line [10] = experiment: ATP synthesis in 143B MELAS cell line; format: cell-based; conditions: 40 μM for 24 hours, measured 2 days later
Description: As confirmed through the previous examples, the compound according to the present invention can promote mitophagy in MELAS syndrome cells, and in the present example, it was confirmed whether the compound can improve mitochondrial dysfunction in MELAS syndrome cells. For this purpose, CD1-012 (40 μM) was treated in the 143B MELAS cell line for 24 hours, and ATP synthesis was measured 2 days later.

COc1ccc2cc3[n+](cc2c1OC)CCc1cc2c(cc1-3)OCO2 [berberine, Berberine, reference compound]
concentration at which mitophagy activity reached its maximum (BEAS-2B cell line [1]; FIG. 5): 80 µM

N#CC(C#N)=NNc1cccc(Cl)c1 [CCCP, Carbonyl Cyanide 3-Chlorophenylhydrazone, reference compound]
mitochondrial ROS levels [2]: significantly increased | mitochondrial membrane potential [3]: significantly reduced | mitophagy activation in PINK1 knockdown cell line (shPINK1) compared to control cell line (shNT) [4]: significantly decreased

Oc1cc2c(cc1O)-c1cc3ccc(O)c(O)c3c[n+]1CC2 [CD1-012, 2,3,9,10-Tetrahydroxy-5,6-dihydroisoquinolino [3,2-a]isoquinolin-7-iumbromide]
mitochondrial ROS levels [2]: no increase in mitochondrial ROS was detected | autophagy activity compared to the untreated control group (BEAS-2B cell line [5]): no significant difference in autophagy activity | mitophagy activity compared to the control group (Con) (SH-SYSY cell line): significantly increased mitophagy activity | mitochondrial protein levels (SDHA, SDHB) compared to the untreated control group ([6]; 20 μM): decrease in mitochondrial protein levels | mitochondrial protein expression (SDHA, SDHB) compared to the untreated control group ([6]; 40 μM): more pronounced decrease in mitochondrial protein expression | mitophagy activity compared to the control group (Con) (HeLa-Parkin cell line): significantly increased mitophagy activity | mitochondrial membrane potential [3]: no decrease in mitochondrial membrane potential was observed | mitophagy activation in PINK1 knockdown cell line (shPINK1) compared to control cell line (shNT) [4]: did not show a significant difference | ATP levels relative to normal cells [7]: 95% | mitophagy activity compared with CCCP-treated sample (FIG. 1A) (BEAS-2B cell line [1]; FACS, 15 μM 24 hours vs CCCP 10 μM): increased as significantly as | concentration at which mitophagy activity reached a level comparable to the maximum of palmatine and berberine (BEAS-2B cell line [1]; FIG. 5): 10 UM | mitophagy-inducing activity relative to berberine (BEAS-2B cell line [1]; FIG. 5): approximately 8 times | mitophagy-inducing activity relative to palmatine (BEAS-2B cell line [1]; FIG. 5): approximately 40 times | concentration at which mitophagy activity began to significantly increase compared to untreated control (BEAS-2B cell line [1]; flow cytometer, FIG. 3A): ≥ 7.5 µM | mitophagy-promoting effect compared with CCCP (confocal microscope) (BEAS-2B cell line [1]; 15 μM 18 hours vs CCCP 10 μM, FIG. 4A): mitophagy-promoting effects similar to those observed in the CCCP-treated sample | mitophagy activity compared to the untreated control group (Con) (BEAS-2B cell line [1]; 15 μM 24 hours (FACS), 15 μM 18 hours (confocal), 20 μM 24 hours (mito-YFP)): significant increase in mitophagy activity | treatment time after which mitophagy activity began to significantly increase (BEAS-2B cell line [1]; 15 μM, FIG. 3B): 3 h | treatment time at which mitophagy activity reached its maximum level (BEAS-2B cell line [1]; 15 μM, FIG. 3B): 18 h | concentration dependence of mitophagy activity (BEAS-2B cell line [1]; up to the maximum treatment concentration of 17.5 μM): continued to increase in a concentration-dependent manner | concentration at which the levels of SDHA and COX4 proteins decreased (143B MELAS cell line [8]): ≥ 10 µM | concentration at which mitophagy activity in the MELAS cell line significantly increased (flow cytometry) (143B MELAS cell line [9]; FIG. 9A): ≥ 10 µM | mitophagy activity by confocal microscopy analysis (143B MELAS cell line [9]; 20 μM and 40 μM, FIG. 9B): increase in mitophagy activity | ATP level relative to the normal cell line levels (143B MELAS cell line [10]): 90% | increase in ATP levels versus untreated MELAS cells (143B MELAS cell line [10]): 131% | ATP levels (143B MELAS cell line [10]; untreated MELAS cells 39.6 nM): 51.9 nM

COc1cc2c(cc1OC)-c1cc3ccc(OC)c(OC)c3c[n+]1CC2 [palmatine, Palmatine, reference compound]
concentration at which mitophagy activity reached its maximum (BEAS-2B cell line [1]; FIG. 5): 400 µM
